Results on two compounds are retold here after patent publication US12291508B2, “Hydrazide containing nuclear transport modulators and uses thereof” (Karyopharm Therapeutics Inc., priority 2011, dated 2025).

In assay [1] the test system is MM.1S multiple myeloma cell line. Nature of the assay: CellTiter 96 AQueous One Solution cell proliferation assay, MM.1S. The following applies: Homo sapiens, MM1.S, 72 h of treatment, read-out: Cytotoxicity Assay. The assay is classed as cell-based. From the text:
The CellTiter 96® AQueous One Solution cell proliferation assay (Promega) was used on MM.1S multiple myeloma cell line to study the cytotoxic and cytostatic properties of the compounds. The assay is based on the cleavage of the tetrazolium salt, MTS, in the presence of an electron-coupling reagent PES (phenazine ethosulfate). The MTS tetrazolium compound is bioreduced by cells into a colored formazan product that is soluble in tissue culture medium. This conversion is presumably accomplished by NADPH or NADH produced by dehydrogenase enzymes in metabolically active cells. Assays are performed by adding a small amount of the CellTiter 96® AQueous One solution reagent directly to culture wells, incubating for 1-4 hours and then recording the absorbance at 490 nm with a 96-well plate reader.
(§1) The cells were seeded at 5×10^3 to 1.5×10^4 cells in each well of a 96-well plate in 100 μL of fresh culture medium and adherent cells were allowed to attach overnight. The stock solutions of the compounds were diluted in cell culture medium to obtain eight concentrations of each drug, ranging from 1 nM to 30 μM and DMSO at less than 1% v/v was used as a negative control. The resulting drug solutions were transferred onto the cells. After 72 h of treatment, 20 μl of CellTiter 96® AQueous reagent was added into each well of the 96-well assay plates and the plate was incubated at 37° C. for 1-4 hours in a humidified, 5% CO2 atmosphere. Then the absorbance of each well was recorded at 490 nm using a 96-well plate reader. In most cases, the assay was performed in triplicate and the results were presented as half maximal inhibitory concentration (IC50). Optical density versus compound concentration was plotted and analyzed using non-linear regression equations (IDBS XLfit) and the IC50 for each compound was calculated.

Another assay has as its system MDA-MB-231. The assay can be described thus: Cell proliferation assay, MDA-MB-231. The assay is classed as cell-based. The settings on record: Homo sapiens; MDA-MB-231, type BaB, 72 h. As for the experimental part:
as §1, with “1.5×10^4 cells (depending on cell type) in each” for “1.5×10^4 cells in each”, “concentration (IC50).” for “concentration (IC50). Optical density versus compound concentration was plotted and analyzed using non-linear regression equations (IDBS XLfit) and the IC50 for each compound was calculated.”

The next assay relates to MCF10A. Nature of the assay: Cell proliferation assay, MCF10A. The assay is classed as cell-based. The following applies: Homo sapiens, MCF-10A, type BaB, 72 h. As for the experimental part: as §1, with “1.5×10^4 cells (depending on cell type) in each” for “1.5×10^4 cells in each”, “concentration (IC50).” for “concentration (IC50). Optical density versus compound concentration was plotted and analyzed using non-linear regression equations (IDBS XLfit) and the IC50 for each compound was calculated.”

The subject of another assay is UACC812. The assay can be described thus: Cell proliferation assay, UACC812. In kind it is cell-based. The following applies: Homo sapiens, UACC-812; UACC812, type Lu, 72 h. As for the experimental part: as §1, with “1.5×10^4 cells (depending on cell type) in each” for “1.5×10^4 cells in each”, “concentration (IC50).” for “concentration (IC50). Optical density versus compound concentration was plotted and analyzed using non-linear regression equations (IDBS XLfit) and the IC50 for each compound was calculated.”

In a further assay the test system is HCC-1143. The assay can be described thus: Cell proliferation assay, HCC-1143. In kind it is cell-based. The following applies: Homo sapiens, HCC1143; HCC-1143, type BaA, 72 h. How it is done: as §1, with “1.5×10^4 cells (depending on cell type) in each” for “1.5×10^4 cells in each”, “concentration (IC50).” for “concentration (IC50). Optical density versus compound concentration was plotted and analyzed using non-linear regression equations (IDBS XLfit) and the IC50 for each compound was calculated.”

Another assay concerns HCC-202. The assay can be described thus: Cell proliferation assay, HCC-202. In kind it is cell-based. The following applies: HCC202; HCC-202, type Lu/HER+, 72 h. How it is done:
as §1, with “1.5×10^4 cells (depending on cell type) in each” for “1.5×10^4 cells in each”, “concentration (IC50).” for “concentration (IC50). Optical density versus compound concentration was plotted and analyzed using non-linear regression equations (IDBS XLfit) and the IC50 for each compound was calculated.”

Assay [2] concerns HS578T cells. The assay can be described thus: Long-term growth assay, HS578T. The assay is classed as cell-based. The settings on record: 1 μM, 7 days, crystal violet. The source says:
At the end of the assay, media was removed from the cells and the remaining cells were stained with crystal violet.

The subject of a further assay is BT-20 TNBC Basal B cells. The assay can be described thus: Nuclear localization of FOXO3a and IκB, BT-20. The assay is classed as cell-based. The settings on record: BT-20, 1 μM, 24 hours. As for the experimental part:
MDA-MB-468 TNBC Basal A and BT-20 TNBC Basal B cells were exposed to DMSO or 1 μM Compound 1-3 for 24 hours and then stained for FOXO3a or IκB with or without DAPI nuclear stain. The stained cells were examined for nuclear localization.

The next assay concerns MDA-MB-468 cells. The assay can be described thus: Anti-apoptosis and cell cycle proteins immunoblot, MDA-MB-468. The assay is classed as cell-based. The following applies: MDA-MB-468, increasing concentrations, 24 hours. (In general: Immunoblotting shows a protein as a band on a membrane.)
The test system of assay [3] is HS578T cells. Nature of the assay: Anti-apoptosis and cell cycle proteins immunoblot, HS578T. In kind it is cell-based. The settings on record: increasing concentrations, 24 hours.
Assay [4] deals with T1, CRM1-mediated nuclear export (Homo sapiens, UniProt O14980).
T1 construct: endogenous in cells; host or cells: U2OS-RevGFP cells
Nature of the assay: RevGFP assay, inhibition of nuclear export. The assay is classed as cell-based. The following applies: U2OS-RevGFP cells, about 1 hr incubation; read-out: Rev Export. How it is done:
The ability of exemplary compounds of the invention to inhibit CRM1-mediated nuclear export was assessed in a RevGFP assay. Rev is a protein from human immunodeficiency virus type 1 (HIV-1) and contains a nuclear export signal (NES) in its C-terminal domain and a nuclear localization signal (NLS) in its N-terminal domain. Nuclear export of Rev protein is dependent on the classical NES/CRM1 pathway (Neville et al. 1997).
In this assay, U2OS-RevGFP cells were seeded onto clear-bottomed, black, 384-well plates the day before the experiment. Compounds were serially diluted 1:2 in DMEM, starting from 40 μM in a separate, 384-well plate, and then transferred onto the cells. The cells were incubated with compound for about 1 hr before fixation with 3.7% formaldehyde and nuclei staining with Hoechst 33258. The amount of GFP in cell nuclei was measured and the IC50 of each compound was determined (Kau et al. 2003).

Assay [5] relates to obese (fa/fa) Zucker rats. In kind it is in vivo. As for the experimental part: Male Zucker (fa/fa) rats and male Zucker lean rats (both from Charles River) at 10 weeks of age—a timepoint at which the Zucker fa/fa rats should show elevated food intake, body mass and elevated plasma lipid profile relative to their “lean” counterparts were singly housed in plastic bottomed cages and were given 14 days of habituation. During this period, animal body weight, food and water intakes were recorded daily. All animals were given ad-lib access to standard lab chow and water throughout the study. Once the 14 day baseline intake data were collected, the Zucker obese rats were assigned into treatment groups based on equivalent baseline data, i.e. all Zucker obese rats had equivalent daily food/water intakes and body weights. During this phase the rats also received two vehicle administrations as familiarisation to the dosing procedure. Immediately after the baseline phase, the treatment phase commenced. Test article and vehicle were administered at approximately 1 h prior to onset of the dark cycle. Dose scheduling varied according to group: 5× weekly dosing was Monday-Friday The study design was the following: Group A=Zucker lean male rats, vehicle treatment 5× week, oral, n=6, Group B=Zucker obese male rats, vehicle treatment 5× week, oral, n=6, Group C=Zucker obese male rats, I-4 2.5 mg/kg 5× week, oral, n=6.
Daily body weight, food and water intake were measured at approximately the same time of the day. At day −1 and day 7 of treatment phase.

Each structure is given as a SMILES string. Counter-ions that a name gives are not always drawn. Bounds are passed on as bounds.

T1 sequence (O14980 whole entry): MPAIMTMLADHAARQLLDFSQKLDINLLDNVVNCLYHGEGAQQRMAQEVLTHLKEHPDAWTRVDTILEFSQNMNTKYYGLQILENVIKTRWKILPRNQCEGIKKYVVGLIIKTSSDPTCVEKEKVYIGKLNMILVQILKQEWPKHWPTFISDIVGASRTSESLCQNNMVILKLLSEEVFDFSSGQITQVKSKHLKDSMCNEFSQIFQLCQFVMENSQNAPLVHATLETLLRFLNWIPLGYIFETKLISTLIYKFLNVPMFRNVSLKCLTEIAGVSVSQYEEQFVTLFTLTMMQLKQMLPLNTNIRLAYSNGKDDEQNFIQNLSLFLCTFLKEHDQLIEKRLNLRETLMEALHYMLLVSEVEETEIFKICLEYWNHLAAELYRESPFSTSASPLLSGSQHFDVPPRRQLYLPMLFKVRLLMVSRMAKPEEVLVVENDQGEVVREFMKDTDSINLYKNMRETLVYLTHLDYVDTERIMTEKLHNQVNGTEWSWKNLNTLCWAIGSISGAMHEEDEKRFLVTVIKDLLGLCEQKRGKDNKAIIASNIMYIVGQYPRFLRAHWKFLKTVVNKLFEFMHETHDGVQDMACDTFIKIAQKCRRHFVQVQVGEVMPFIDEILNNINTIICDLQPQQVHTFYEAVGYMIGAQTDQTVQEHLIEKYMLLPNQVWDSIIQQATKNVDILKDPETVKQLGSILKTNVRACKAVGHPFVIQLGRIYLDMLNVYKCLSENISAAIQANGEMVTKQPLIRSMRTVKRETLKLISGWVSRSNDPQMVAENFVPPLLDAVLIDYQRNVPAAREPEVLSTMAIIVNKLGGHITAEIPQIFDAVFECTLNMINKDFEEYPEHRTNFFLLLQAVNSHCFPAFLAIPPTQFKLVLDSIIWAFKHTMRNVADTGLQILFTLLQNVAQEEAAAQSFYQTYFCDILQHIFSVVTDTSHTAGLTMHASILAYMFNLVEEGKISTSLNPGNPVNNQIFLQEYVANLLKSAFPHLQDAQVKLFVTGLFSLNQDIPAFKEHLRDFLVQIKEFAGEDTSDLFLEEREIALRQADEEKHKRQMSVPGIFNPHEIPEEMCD

Turning to `O=C(/C=C\n1cnc(-c2cc(C(F)(F)F)cc(C(F)(F)F)c2)n1)NNc1cnccn1` [Compound I-3, (Z)-3-(3-(3,5-bis(trifluoromethyl)phenyl)-1H-1,2,4-triazol-1-yl)-N′-(pyrazin-2-yl)acrylohydrazide], the IC50 was no more than 1000 nM in [1]; 10 nM in the assay on MDA-MB-231; 180 nM with MCF10A; 590 nM in the assay on UACC812; 600 nM with HCC-1143; 5200 nM in the assay with HCC-202. In the assay on HS578T cells [2], the long-term growth result is given as “inhibited the long-term growth”. Moreover, in the assay with BT-20 TNBC Basal B cells, the “localization of FOXO3a and IκB” value is “both FOXO3a and IκB were localized in the cell nucleus”. The MCL-1 protein level entry in the assay on MDA-MB-468 cells and in the assay on HS578T cells [3] was “a reduction in MCL-1 is observed” in each case.
As for `O=C(/C=C\n1cnc(-c2cc(C(F)(F)F)cc(C(F)(F)F)c2)n1)NNc1ccccn1` [Compound I-4, (Z)-3-(3-(3,5-bis(trifluoromethyl)phenyl)-1H-1,2,4-triazol-1-yl)-N′-(pyridin-2-yl)acrylohydrazide hydrochloride], the IC50 in [4] and in assay [1] was no more than 1000 nM in each case. For the same compound, the “mean and cumulative food intake” value in [5] (2.5 mg/kg 5× weekly, oral, obese (fa/fa) Zucker rats) was “reduced mean and cumulative food intake”. Also, the body weight gain result in assay [5] (2.5 mg/kg 5× weekly, oral, compared to Zucker fa/fa controls) is given as “significantly reduced weight gain”. The “body weight gain after washout” value in assay [5] (2 day washout phase, compared to Zucker fa/fa controls) is on record as “body weight gain still reduced”.
